In patent US20190254276A1 (priority 2010, published 2019):
Read-outs that look alike come from different tables or passages of the source.

Columns and labels:
TGEV = conditions: 45% PG eluate; for Reduction Factor: vs T0
BVDV = conditions: 45% PG eluate; for Titre: Standard titration; for Reduction Factor: vs T0

## propane-1,2-diol [PG]
TGEV; Run 1, T = 0 Load Sample
  Clearance Factor: 0.07 log
TGEV; Run 1, T = 0 Load Sample, Standard titration
  Titre: 5.12 log10 TCID50/ml
TGEV; Run 1, T = 5 min
  Clearance Factor: 124 log
  Log10TICD50 (total viral load): 5.21 Log10TICD50
  Reduction Factor: 1.0 log
TGEV; Run 1, T = 5 min, Standard titration
  Titre: 3.95 log10 TCID50/ml
TGEV; Run 1, T = 15 min, Standard titration
  Titre: 2.78 log10 TCID50/ml
TGEV; Run 1, T = 60 min, Standard titration
  Titre: 132 log10 TCID50/ml
TGEV; Run 1, T = 60 min
  Reduction Factor: 3.0 log
TGEV; Run 1, T = 180 min
  Clearance Factor: 4.38 log
  Log10TICD50 (total viral load): 3.08 Log10TICD50
TGEV; Run 1, T = 180 min, Standard titration
  Titre: 0.8 log10 TCID50/ml
TGEV; Run 1, T = 360 min, Standard titration
  Titre: <0.8 log10 TCID50/ml
TGEV; Run 2, T = 0 Load Sample
  Clearance Factor: 0.08 log
TGEV; Run 2, T = 0 Load Sample, Standard titration
  Titre: 5.28 log10 TCID50/ml
TGEV; Run 2, T = 5 min, Standard titration
  Titre: 4.26 log10 TCID50/ml
TGEV; Run 2, T = 5 min
  Reduction Factor: 1 log
TGEV; Run 2, T = 15 min
  Log10TICD50 (total viral load): 5.40 Log10TICD50
  Reduction Factor: 8.05 log
TGEV; Run 2, T = 15 min, Standard titration
  Titre: 3.2 log10 TCID50/ml
TGEV; Run 2, T = 60 min
  Clearance Factor: 4.50 log
  Reduction Factor: 4.45 log
TGEV; Run 2, T = 60 min, Standard titration
  Titre: 0.8 log10 TCID50/ml
TGEV; Run 2, T = 180 min, 1 LVP (96 wells)
  Titre: −0.12 log10 TCID50/ml
TGEV; Run 2, T = 180 min, LVP
  Reduction Factor: 5.4 log
TGEV; Run 2, T = 360 min, 1 LVP (96 wells)
  Titre: <−0.12 log10 TCID50/ml
TGEV; Run 2, T = 360 min, LVP
  Reduction Factor: >5.40 log
BVDV; Run 1, T = 0 Load Sample
  Clearance Factor: 0.43 log
BVDV; Run 1, T = 5 min
  Clearance Factor: 165 log
  Log10TICD50 (total viral load): 4.53 Log10TICD50
  Titre: 18 log10TCID50/ml
  Reduction Factor: 122 log
BVDV; Run 1, T = 15 min
  Clearance Factor: 13 log
  Log10TICD50 (total viral load): 6.50 Log10TICD50
  Reduction Factor: 0.97 log
BVDV; Run 1, T = 60 min
  Clearance Factor: 13 log
  Log10TICD50 (total viral load): 4.90 Log10TICD50
  Reduction Factor: 0.97 log
BVDV; Run 1, T = 180 min
  Clearance Factor: 13 log
  Log10TICD50 (total viral load): 4.58 Log10TICD50
  Reduction Factor: 0.97 log
BVDV; Run 2, T = 0 Load Sample
  Clearance Factor: 0.44 log
  Log10TICD50 (total viral load): 5.78 Log10TICD50
BVDV; Run 2, T = 25
  Titre: 132 log10TCID50/ml
  Reduction Factor: 171 log
BVDV; Run 2, T = 5 min
  Clearance Factor: 188 log
  Titre: 159 log10TCID50/ml
  Reduction Factor: 144 log
BVDV; Run 2, T = 60 min
  Clearance Factor: 168 log
  Titre: 189 log10TCID50/ml
  Reduction Factor: 144 log
